Measurements reported in patent US20210322509A1, “Methods for Reducing Perinatal Morbidity and / or Mortality” (CHU SAINTE-JUSTINE, priority 2016, published 2021).
Non-standard residues stand in square brackets, D forms with d. Residues, ends and D or L forms follow the SMILES beside them. ξ: configuration not given here. dThr(3ξ) = CC(O)[C@@H](N)C(=O)O

Assays:
[1] = tested on: pups from IL-1β-treated dams; test: Behavioral test (spontaneous open field activity); type: in vivo, mice; details: PT15
Protocol: Behavioral test (Spontaneous openfield activity). Each animal (PND15 and PND28) was gently placed in the center of the openfield, allowed to freely explore undisturbed for 10 min, after which the animal was removed, the arena cleaned with 70% ethanol and dried prior to testing the next animal. Locomotor activity was indexed as the total distance travelled (cm). The evaluator was blinded to the groups. All movements were monitored and quantified using Smart software.

[2] = tested on: Il1a, Il1b, Il6 and Tnfa mRNA in fetal head; test: LPS-induced cytokine gene expression in fetal brain (qPCR); type: in vivo, C57Bl/6 mice
Protocol: FIGS. 10A to 10D show the induction of pro-inflammatory cytokines in fetal brain after maternal LPS administration is suppressed by compound 2 (cmpd2) in mice. C57Bl/6 mice were mated to males of the same genotype, administered LPS with or without compound 2 and fetal head were recovered. Relative expression of Il1a (FIG. 10A), IL6 (FIG. 10B), TNF (FIG. 10C) and IL1B (FIG. 10D) mRNAs were determined in each tissue by qPCR and normalized to Actb. Data are shown as mean±SEM relative gene expression in tissue pooled from two implantation sites with n=6 dams/group. The effect of LPS and compound 2 was analyzed by Kruskal-Wallis and Mann-Whitney U-test. #* indicates significant differences between groups, p<0.05.
Animal and treatments. To analyze effects of compound 2 on LPS-induced cytokine expression in the fetal brain after inflammatory stimulus mimicking infection in utero, pregnant female C57Bl/6 female mice (mated with C57Bl/6 males) were injected with 0.5 μg lipopolysaccharide (LPS; Salmonella typhimurium; Sigma-Aldrich®, St. Louis, Mo., USA) in 200 μl PBS i.p., or PBS control, at 1100 h on gd 16.5. Mice were immediately administered compound 2 (1 mg/kg in PBS) or vehicle control (PBS+0.1% BSA) within 5 mins of LPS injection on gd 16.5, then killed 4 h later. Brain tissues were recovered by severing the fetal head from 2 fetuses from each of […] per treatment group.
Expression of inflammatory markers. Messenger RNA (mRNA) was extracted by homogenizing tissues using ceramic beads (Mo Bio) in Trizol® (Ambion® RNA, Carlsbad Calif.). […] Primer pairs specific for published cDNA sequences were designed using Primer Express® software (Applied Biosystems®, Foster City, Calif.) to quantify Il1a, Il1b, Il6 and Tnfa mRNA. […] Data were normalized to β-actin mRNA expression and expressed as ΔΔCT using the formula mRNA level=[…]. […] Data were tested for normality using a Shapiro-Wilk test then analyzed by Kruskal-Wallis and Mann-Whitney U-test since data were not normally distributed. […]

Row | Structure (SMILES) | behavior/locomotion activity (distance travelled, open field) [1] | expression of Il1a, Il1b and Il6 in fetal head relative to PBS control ([2]; LPS + compound 2) | expression of Il1a, Il1b and Il6 in fetal head relative to PBS control ([2]; compound 2 alone (no LPS)) | expression of Il1a, IL6, TNF and IL1B in fetal head, reduction relative to LPS alone ([2]; dams given LPS 0.5 μg i.p. gd 16.5 + compound 2 1 mg/kg, 4 h later)
1 | CC(C)C[C@@H](NC(=O)[C@@H](CCC(=O)O)NC(=O)[C@H](NC(=O)[C@H](NC(=O)[C@@H](Cc1ccc(O)cc1)NC(=O)[C@H](N)CCCNC(=N)N)C(C)O)C(C)C)C(=O)N[C@H](C)C(N)=O (stereo partly drawn) [compound 1] (H-[dR][dY][dThr(3ξ)][dV][dE][dL][dA]-NH2) | normalization of the behavior/locomotion activity |  |  | 
2 | CC(C)C[C@@H](NC(=O)[C@@H](CCC(=O)O)NC(=O)[C@H](NC(=O)[C@H](NC(=O)[C@@H](Cc1ccc(O)cc1)NC(=O)[C@H](N)CCCNC(=N)N)C(C)O)C(C)C)C(=O)N[C@H](C)C(=O)O (stereo partly drawn) [compound 2] (H-[dR][dY][dThr(3ξ)][dV][dE][dL][dA]-OH) |  | no change | did not significantly alter | 40-60%
